Test results as given in patent US12590099B2, “Inhibitors of histone deacetylase useful for the treatment or prevention of HIV infection” (Merck Sharp & Dohme LLC, priority 2018, dated 2026).

Tests used:
Type in all cases: biochemical
HDAC6 = molecular target: T1, HDAC6 (Homo sapiens, UniProt Q9UBN7); experiment: Human HDAC enzyme inhibitor Fluor-de-Lys assay, HDAC6; details: HDAC6, Fluor-de-Lys assay
T1 sequence (Q9UBN7 1-1215): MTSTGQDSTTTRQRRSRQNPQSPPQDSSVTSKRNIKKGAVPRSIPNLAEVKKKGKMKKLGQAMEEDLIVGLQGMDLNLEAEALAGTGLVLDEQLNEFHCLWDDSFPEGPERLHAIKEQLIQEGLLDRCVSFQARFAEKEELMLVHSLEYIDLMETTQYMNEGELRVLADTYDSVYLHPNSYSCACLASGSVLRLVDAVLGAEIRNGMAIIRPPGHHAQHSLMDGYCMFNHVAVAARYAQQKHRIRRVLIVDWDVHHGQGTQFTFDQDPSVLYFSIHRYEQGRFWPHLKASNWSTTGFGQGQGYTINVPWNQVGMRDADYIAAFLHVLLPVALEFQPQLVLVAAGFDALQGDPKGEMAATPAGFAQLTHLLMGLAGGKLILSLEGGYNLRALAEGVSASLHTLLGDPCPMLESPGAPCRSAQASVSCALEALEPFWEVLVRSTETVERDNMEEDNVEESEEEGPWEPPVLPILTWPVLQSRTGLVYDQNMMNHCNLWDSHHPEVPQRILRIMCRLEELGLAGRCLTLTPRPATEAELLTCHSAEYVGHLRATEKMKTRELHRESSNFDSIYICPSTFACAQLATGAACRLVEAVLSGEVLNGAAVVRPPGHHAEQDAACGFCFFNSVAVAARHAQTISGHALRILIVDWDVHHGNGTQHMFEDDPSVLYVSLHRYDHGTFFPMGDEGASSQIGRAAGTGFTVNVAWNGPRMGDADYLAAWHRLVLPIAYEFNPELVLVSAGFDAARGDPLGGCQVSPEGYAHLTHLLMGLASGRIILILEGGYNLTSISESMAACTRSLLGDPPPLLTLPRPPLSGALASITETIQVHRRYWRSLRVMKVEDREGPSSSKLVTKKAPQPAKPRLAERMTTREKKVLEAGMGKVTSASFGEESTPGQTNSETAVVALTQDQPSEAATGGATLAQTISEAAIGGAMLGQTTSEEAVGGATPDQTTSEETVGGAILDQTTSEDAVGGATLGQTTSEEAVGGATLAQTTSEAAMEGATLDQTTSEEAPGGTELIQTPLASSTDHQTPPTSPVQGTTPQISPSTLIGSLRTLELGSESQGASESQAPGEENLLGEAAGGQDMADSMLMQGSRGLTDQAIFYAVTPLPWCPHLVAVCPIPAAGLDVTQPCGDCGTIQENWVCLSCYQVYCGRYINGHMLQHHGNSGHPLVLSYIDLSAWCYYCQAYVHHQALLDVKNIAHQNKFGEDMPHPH

Recombinant human HDAC2 = molecular target: T2, Recombinant human HDAC2 (Homo sapiens, UniProt Q92769); experiment: Human HDAC enzyme inhibitor Fluor-de-Lys assay, HDAC2; details: recombinant human HDAC2, Fluor-de-Lys assay
T2 construct: Full length human HDAC2-FLAG was expressed in baculovirus infected Sf9 cells; FLAG (C); made in house; host or cells: Sf9 (baculovirus)
Outline: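 Fluor-de-Lys format at room temperature (23° C.): compounds titrated 10-point, 1:3, preincubated with HDAC before substrate addition. Developer with excess HDAC inhibitor ends the reaction, and trypsin-liberated AMC fluorescence is the read-out.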

Recombinant human HDAC8 = molecular target: T3, Recombinant human HDAC8 (Homo sapiens, UniProt Q9BY41); experiment: Human HDAC enzyme inhibitor Fluor-de-Lys assay, HDAC8; details: recombinant human HDAC8, Fluor-de-Lys assay
T3 construct: purchased Enzo Life Sciences BML-SE145-0100
T3 sequence (Q9BY41 1-377): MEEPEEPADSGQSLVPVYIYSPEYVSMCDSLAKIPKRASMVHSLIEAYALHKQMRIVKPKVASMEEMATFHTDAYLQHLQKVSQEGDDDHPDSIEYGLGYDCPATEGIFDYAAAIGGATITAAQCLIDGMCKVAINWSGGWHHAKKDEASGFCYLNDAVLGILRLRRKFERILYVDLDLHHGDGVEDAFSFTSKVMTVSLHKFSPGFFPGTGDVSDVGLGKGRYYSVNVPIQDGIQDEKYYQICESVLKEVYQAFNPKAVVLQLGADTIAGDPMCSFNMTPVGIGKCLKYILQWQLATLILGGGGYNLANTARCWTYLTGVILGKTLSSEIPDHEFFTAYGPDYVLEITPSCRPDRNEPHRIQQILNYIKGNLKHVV

T2 sequence (Q92769 whole entry): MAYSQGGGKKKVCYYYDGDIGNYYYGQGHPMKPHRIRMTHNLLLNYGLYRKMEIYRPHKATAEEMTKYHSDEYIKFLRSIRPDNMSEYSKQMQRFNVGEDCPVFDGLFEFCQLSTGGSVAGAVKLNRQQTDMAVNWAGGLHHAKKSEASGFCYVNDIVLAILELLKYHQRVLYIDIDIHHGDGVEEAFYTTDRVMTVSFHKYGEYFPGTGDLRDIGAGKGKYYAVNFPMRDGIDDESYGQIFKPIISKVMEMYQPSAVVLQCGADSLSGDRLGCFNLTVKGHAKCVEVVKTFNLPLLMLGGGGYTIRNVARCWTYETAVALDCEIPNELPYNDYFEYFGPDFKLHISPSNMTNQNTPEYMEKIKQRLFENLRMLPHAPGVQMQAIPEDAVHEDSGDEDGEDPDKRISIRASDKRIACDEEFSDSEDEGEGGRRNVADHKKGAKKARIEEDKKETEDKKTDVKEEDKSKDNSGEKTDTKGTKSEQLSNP

Structure (SMILES)	IC50 (HDAC6) [µM]	IC50 (Recombinant human HDAC2) [µM]	IC50 (Recombinant human HDAC8) [µM]
CCC(=O)CCCCC[C@H](NC(=O)C1=NOC2(CCN(C)CC2)C1)c1ncc(-c2ccccc2)[nH]1 [Compound 382]	12.1	0.145	6.64
CCC(=O)CCCCC[C@H](NC(=O)[C@H]1CC[C@@]2(CC1)OC(=O)c1cnccc12)c1ncc(-c2ccccc2)[nH]1 [Compound 373]	10.1	0.423	6.67
CCC(=O)CCCCC[C@H](NC(=O)[C@H]1CC[C@]2(CC1)OC(=O)c1cccnc12)c1nnc(-c2cc3ccccc3nc2OC)o1 [Compound 368]	2.38	0.149	21.7
CCC(=O)CCCCCC(NC(=O)C1CCC2(CC1)OC(=O)c1ncccc12)c1nnc(-c2cc3ccccc3nc2OC)o1 (stereo not drawn) [Compound 365]	1.94	0.208	28.4
CCC(=O)CCCCC[C@H](NC(=O)C1CC12CCOCC2)c1ncc(-c2cc3ccc(C)nc3cc2OC)o1 (single isomer, unassigned) [Compound 410]	> 0.9	0.143	> 0.9
CCC(=O)CCCCC[C@H](NC(=O)[C@H]1CC12CCN(C)CC2)c1ncc(-c2cc3ccc(N(C)C)nc3cc2OC)o1 [Compound 406]	> 0.9	0.0025	0.3
CCC(=O)CCCCC[C@H](NC(=O)CCN1C(=O)C(CC)=NC12CCOCC2)c1ncc(-c2ccccc2)[nH]1 [Compound 384]	10.3	0.154	8.93
CCC(=O)CCCCC[C@H](NC(=O)[C@H]1CC[C@@]2(CC1)OC(=O)c1ccncc12)c1ncc(-c2ccccc2)[nH]1 [Compound 372]	10.2	0.416	7.73
CCC(=O)CCCCC[C@H](NC(=O)[C@H]1CC[C@]2(CC1)OC(=O)c1ccncc12)c1ncc(-c2ccccc2)[nH]1 [Compound 376]	10.8	0.239	4.84
CCC(=O)CCCCC[C@H](NC(=O)[C@H]1CC[C@]2(CC1)OC(=O)c1ncccc12)c1nnc(-c2cc3ccccc3nc2OC)o1 [Compound 367]	2.11	0.0676	21.4
CCC(=O)CCCCC[C@H](NC(=O)C1=NOC2(CCN(C)CC2)C1)c1nnc(-c2cc3ccccc3nc2OC)o1 [Compound 370]	1.74	0.0418	8.65
CCC(=O)CCCCC[C@H](NCC1CC1)c1ncc(-c2cc3ccc(C)nc3cc2OC)[nH]1 [Compound 398, (S)-9-((cyclopropylmethyl)amino)-9-(5-(7-methoxy-2-methylquinolin-6-yl)-1H-imidazol-2-yl)nonan-3-one]	> 0.9	0.81	> 0.9
CCC(=O)CCCCC[C@H](NC(=O)C1=NOC2(CCN(S(C)(=O)=O)CC2)C1)c1ncc(-c2ccccc2)[nH]1 [Compound 383]	16.1	0.427	8.96
CCC(=O)CCCCC[C@H](NC(=O)[C@H]1CC[C@@]2(CC1)OC(=O)c1cccnc12)c1nnc(-c2cc3ccccc3nc2OC)o1 [Compound 366]	2.76	0.321	> 45
CCC(=O)CCCCC[C@H](NC(=O)[C@H]1CC12CCN(C)CC2)c1ncc(-c2cc3ocnc3cc2OC)o1 [Compound 408]	0.647	0.0361	> 0.9
CCC(=O)CCCCC[C@H](NC(=O)C1=NOC2(CCN(CC3CC3)CC2)C1)c1ncc(-c2cc3ccc(=O)n(C)c3cc2F)o1 [Compound 387]	> 0.9	0.207	> 0.9

Structure (SMILES)	IC50 (HDAC6) [µM]	IC50 (Recombinant human HDAC2) [µM]	IC50 (Recombinant human HDAC8) [µM]
CCCC(=O)CCCCC[C@H](NC(=O)[C@H]1CC12CCN(CC1CC1)CC2)c1ncc(-c2cc3ccc(C)nc3cc2OC)[nH]1 [Compound 416]	> 0.9	0.0045	> 0.9
CCC(=O)CCCCC[C@H](NC(=O)C1=NOC2(CCN(C)CC2)C1)c1ncc(-c2cc3ccncc3cc2OC)o1 [Compound 415]	> 0.9	0.0331	> 0.9
CCC(=O)CCCCC[C@H](NC(=O)C1CC12CCOCC2)c1ncc(-c2cc3ccc(C)nc3cc2OC)o1 (single isomer, unassigned) [Compound 409]	> 0.9	0.1	> 0.9
CCC(=O)CCCCC[C@H](NC(=O)[C@H]1CC12CCN(CC1CC1)CC2)c1ncc(-c2ccc3nc(C)ccc3c2)[nH]1 [Compound 393]	0.325	0.0001	> 0.9
CCC(=O)CCCCC[C@H](NC(=O)[C@H]1CC[C@@]2(CC1)OC(=O)c1ncccc12)c1ncc(-c2ccccc2)[nH]1 [Compound 374]	11.2	0.423	8.18
CCC(=O)CCCCC[C@H](NCc1ccncc1)c1ncc(-c2cc3ccc(C)nc3cc2OC)[nH]1 [Compound 404]	> 0.9	> 0.9	> 0.9
CCC(=O)CCCCC[C@H](NC(=O)C1=NOC2(CCN(C)CC2)C1)c1ncc(-c2cc3ccc(=O)n(C)c3cc2F)o1 [Compound 386]	> 0.9	0.0547	> 0.9
CCC(=O)CCCCC[C@H](NC(=O)C1=NOC2(CCN(C)CC2)C1)c1ncc(-c2ccc(-c3ccncc3)cc2OC)o1 [Compound 395]	> 0.9	0.0363	> 0.9
CCC(=O)CCCCC[C@H](NC(=O)C1=NOC2(CCN(C)CC2)C1)c1ncc(-c2ccc(Cl)cc2OC)o1 [Compound 390]	0.309	0.159	> 0.9
CCC(=O)CCCCC[C@H](NC(=O)C1CC12CCOCC2)c1ncc(-c2cc3ccc(C)nc3cc2OC)[nH]1 (single isomer, unassigned) [Compound 407]	> 0.9	0.0202	> 0.9
CCC(=O)CCCCC[C@H](NC(=O)C1=NOC2(CCN(S(C)(=O)=O)CC2)C1)c1nnc(-c2cc3ccccc3nc2OC)o1 [Compound 371]	4.66	0.287	> 45
CCC(=O)CCCCC[C@H](NC(=O)C1=NOC2(CCN(C)CC2)C1)c1ncc(-c2cc3ccc(N(C)C)nc3cc2OC)o1 [Compound 397]	> 0.9	0.0066	> 0.9
CCC(=O)CCCCCC(CC)(NC(=O)[C@H]1CC12CCN(CC1CC1)CC2)c1nc(-c2cc3ccc(C)nc3cc2OC)c[nH]1 (stereo partly drawn) [Compound 420, (1S)-6-(cyclopropylmethyl)-N-{3-[4-(7-methoxy-2-methylquinolin-6-yl)-1H-imidazol-2-yl]-9-oxoundecan-3-yl}-6-azaspiro[2.5]octane-1-carboxamide]	> 0.9	0.33	> 0.9
CCC(=O)CCCCC[C@H](NC(=O)C1=NOC2(CCN(C(C)=O)CC2)C1)c1ncc(-c2ccccc2)[nH]1 [Compound 380]	16.2	0.326	6.33
CCCC(=O)CCCCC[C@H](N)c1ncc(-c2cc3ccc(C)nc3cc2OC)[nH]1 [Compound A30]	> 0.9	0.304	0.542
CCC(=O)CCCCC[C@H](NCC1CN(C)C1)c1ncc(-c2cc3ccc(C)nc3cc2OC)o1 [Compound 401, (9S)-9-[5-(7-methoxy-2-methylquinolin-6-yl)-1,3-oxazol-2-yl]-9-{[(1-methylazetidin-3-yl)methyl]amino}nonan-3-one]	> 0.9	0.179	> 0.9
